Reference: PMC2676941 (The Journal of membrane biology, 2008)

Assays:
[1] = test system: plasmodial surface anion channel (PSAC); format: cell-based, Plasmodium falciparum; settings: for concentration to inhibit proline transport versus hydroxyproline transport: data not shown
[2] = test system: plasmodial surface anion channel (PSAC); settings: compared with sorbitol and alanine transport; ref Lisk et al. 2007; cited from earlier work

SMILES: O=C1CN(/N=C/c2ccc(-c3ccc([N+](=O)[O-])cc3)o2)C(O)=N1 [Dantrolene]
- concentration to inhibit proline transport versus hydroxyproline transport [1]: required higher concentrations

SMILES: O=C(O)c1cc([N+](=O)[O-])ccc1NCCCc1ccccc1 [NPPB]
- hydroxyproline uptake (osmotic lysis over 90 min) ([1]; 10 μM NPPB): abolished
- proline-mediated lysis ([1]; 10 μM NPPB): slowed but not abolished
- higher inhibitor concentration required to comparably reduce proline uptake ([1]; relative to the concentration that abolishes hydroxyproline uptake): 10 fold

SMILES: COc1ccc(Cl)cc1C(=O)NCCc1ccc(S(=O)(=O)NC(=O)NC2CCCCC2)cc1 [glybenclamide]
- concentration to inhibit proline transport versus hydroxyproline transport [1]: required higher concentrations

SMILES: O=C(CCc1ccc(O)cc1)c1c(O)cc(O)cc1O[C@@H]1O[C@H](CO)[C@@H](O)[C@H](O)[C@H]1O [phloridzin]
- inhibition of PhTMA-Cl and isoleucine transport [2]: less effectively inhibited
